ChEMBL document CHEMBL4190266, “Deconstruction - reconstruction approach to analyze the essential structural elements of tetrahydro-3-benzazepine-based antagonists of GluN2B subunit containing NMDA receptors” (Eur J Med Chem, 2017)

Experiments:
[1] = Antagonist activity at GluN1A/GluN2A receptor (unknown origin) expressed in Xenopus laevis oocytes assessed as inhibition of glutamate/glycine-induced channel current at 1 uM at -70 mV holding potential by two electrode voltage clamp method relative to control; type: cell-based; settings: Homo sapiens
[2] = biological target: Sigma non-opioid intracellular receptor 1 (Cavia porcellus, UniProt Q60492)
Sequence of Sigma non-opioid intracellular receptor 1 (Q60492 whole entry): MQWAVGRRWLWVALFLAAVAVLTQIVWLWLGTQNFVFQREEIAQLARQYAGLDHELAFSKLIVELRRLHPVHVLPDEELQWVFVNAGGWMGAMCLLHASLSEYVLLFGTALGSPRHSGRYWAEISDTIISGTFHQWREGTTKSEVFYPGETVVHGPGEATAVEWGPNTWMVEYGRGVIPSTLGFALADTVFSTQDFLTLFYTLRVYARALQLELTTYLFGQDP
Description: Displacement of [3H]-(+)-pentazocine from sigma1 receptor in guinea pig brain cortex membranes after 120 mins by microbeta scintillation counting method

[3] = organism: Homo sapiens; experiment: Antagonist activity at glutamate/glycine-stimulated recombinant human GluN1A/GluN2B receptor expressed in mouse L(tk-) cells assessed as protection against receptor overstimulation-induced excitotoxicity at 10 to 100 uM preincubated for 30 mins followed by glutamate/glycine stimulation measured after 6 hrs by LDH release assay relative to control; type: cell-based
[4] = Selectivity ratio of Ki for sigma1 receptor in guinea pig brain cortex membranes to Ki for recombinant human GluN1A/GluN2B receptor expressed in mouse L(tk-) cell membranes; type: cell-based
[5] = Selectivity ratio of Ki for sigma2 receptor in rat liver membranes to Ki for recombinant human GluN1A/GluN2B receptor expressed in mouse L(tk-) cell membranes; type: cell-based
[6] = biological target: T1, Sigma intracellular receptor 2 (Rattus norvegicus, UniProt Q5U3Y7); experiment: Displacement of [3H]DTG from sigma2 receptor in rat liver membranes after 120 mins by microbeta scintillation counting method; type: cell membranes, Membrane
T1 sequence (Q5U3Y7 whole entry): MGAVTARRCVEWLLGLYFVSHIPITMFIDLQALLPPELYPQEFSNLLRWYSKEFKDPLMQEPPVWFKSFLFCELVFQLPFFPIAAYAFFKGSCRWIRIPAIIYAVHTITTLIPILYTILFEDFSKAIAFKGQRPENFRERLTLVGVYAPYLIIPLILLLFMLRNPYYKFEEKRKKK

[7] = Displacement of [3H]ifenprodil from recombinant human GluN1A/GluN2B receptor expressed in mouse L(tk-) cell membranes after 120 mins by microbeta scintillation counting method
[8] = n-Octanol-buffer distribution coefficient, log D of the compound at pH 7.4 by mass spectrometry based shake flask method; type: physicochemical
[9] = Selectivity ratio of Ki for PCP binding site of NMDA receptor in pig brain cortex membranes to Ki for recombinant human GluN1A/GluN2B receptor expressed in mouse L(tk-) cell membranes

| Structure (SMILES) | inhibition [1] [%] | Ki [2] [nM] | inhibition [3] [%] | Ratio Ki [4] | Ratio Ki [5] | Ki [6] [nM] | Ki [7] [nM] | logD [8] | Ratio Ki [9] |
| --- | --- | --- | --- | --- | --- | --- | --- | --- | --- |
| O=[N+]([O-])c1ccc2c(c1)C(O)CN(C1CCC(c3ccccc3)CC1)CC2 (mixture of isomers) | 4.8 | 360 | < 6 | 23 | 2 | 24 | 16 | – | – |
| O=[N+]([O-])c1ccc2c(c1)C(O)CN(CCCCc1ccccc1)CC2 (stereo not drawn) | – | 621 | – | 2 | 0.7 | 220 | 300 | 3.82 | – |
| OC1CN(C2CCC(c3ccccc3)CC2)CCc2ccccc21 (mixture of isomers) | 0.8 | 82 | < 6 | 37 | 25 | 55 | 2.2 | – | > 4500 |
| O=[N+]([O-])c1ccc2c(c1)C(O)CN(CCc1ccccc1)CC2 (stereo not drawn) | – | 1800 | – | 1 | 6 | > 10000 | 1600 | – | – |
| O=[N+]([O-])c1ccc2c(c1)C(O)CN(Cc1ccc(-c3ccccc3)cc1F)CC2 (stereo not drawn) | – | 2800 | – | – | – | 1400 | > 1000 | – | – |
| O=[N+]([O-])c1ccc2c(c1)C(O)CN(Cc1ccccc1)CC2 (stereo not drawn) | – | 320 | – | < 0.3 | – | 4600 | > 1000 | – | – |
| OC1CN(CCc2ccccc2)CCc2ccccc21 (stereo not drawn) | – | 1600 | – | 1 | 2 | 3200 | – | – | – |
| O=C(c1ccccc1)N1CCC(N2CCc3ccccc3C(O)C2)CC1 (stereo not drawn) | – | 800 | – | 0.9 | 2 | 1400 | 890 | – | – |
| OC1CN(CCCCOc2ccccc2)CCc2ccccc21 (stereo not drawn) | – | > 10000 | – | > 41 | 1 | 280 | 250 | – | – |
| Nc1ccc2c(c1)C(O)CN(CCCCCc1ccccc1)CC2 (stereo not drawn) | – | 260 | – | 2 | 0.9 | 110 | 130 | – | – |
| OC1CN(Cc2ccc(-c3ccccc3)cc2)CCc2ccccc21 (stereo not drawn) | – | 230 | – | 1 | 4 | 760 | 210 | – | – |
| O=C(CCCN1CCc2ccccc2C(O)C1)c1ccc(F)cc1 (stereo not drawn) | – | 1100 | – | 4 | 0.2 | 61 | – | – | – |
| OC(CN1CCC(Cc2ccc(F)cc2)CC1)c1ccc(Cl)cc1 (stereo not drawn) [ELIPRODIL] | – | – | – | – | – | – | 13 | – | – |
| c1ccc(CCCCCN2CCc3ccccc3CC2)cc1 | – | 48 | – | 0.4 | 1 | 170 | 110 | – | – |
| O=[N+]([O-])c1ccc2c(c1)C(O)CN(CCCc1ccccc1)CC2 (stereo not drawn) | – | 1300 | – | 12 | 3 | 300 | 110 | – | – |
| OC1CN(CCCCc2ccccc2)CCc2ccccc21 (stereo not drawn) | – | – | – | – | – | – | – | 2.7 | – |
| Nc1ccc2c(c1)C(O)CN(CCCCc1ccccc1)CC2 (stereo not drawn) | – | > 10000 | – | > 10 | 1 | 970 | 1000 | 1.58 | – |
| OC1CN(C2CCN(Cc3ccccc3)CC2)CCc2ccccc21 (stereo not drawn) | 13 | 3.5 | < 6 | 0.6 | 6 | 34 | 6 | – | – |
| CC(C(O)c1ccc(O)cc1)N1CCC(Cc2ccccc2)CC1 (stereo not drawn) [IFENPRODIL] | 87 | – | – | – | – | – | 10 | – | – |
| COc1ccc(C(=O)CCCN2CCc3ccccc3C(O)C2)cc1 (stereo not drawn) | – | > 10000 | – | – | – | 1100 | > 1000 | – | – |
| c1ccc(-c2ccc(CN3CCc4ccccc4CC3)cc2)cc1 | – | 16 | – | 0.2 | 2 | 120 | 75 | – | – |
| c1ccc(CCCCN2CCc3ccccc3CC2)cc1 | – | 10 | – | 0.04 | 0.15 | 35 | 230 | 3.13 | – |
| Oc1ccc2c(c1)CCN(CCCCc1ccccc1)CC2O (stereo not drawn) | – | – | – | – | – | – | – | 1.67 | – |
| O=[N+]([O-])c1ccc2c(c1)C(O)CN(CCCCOc1ccccc1)CC2 (stereo not drawn) | – | 1500 | – | 2 | 1 | 1000 | 770 | – | – |
| O=[N+]([O-])c1ccc2c(c1)C(O)CN(CCCCCc1ccccc1)CC2 (stereo not drawn) | – | 100 | – | 0.4 | 0.5 | 116 | 240 | – | – |
| OC1CN(CCCCCc2ccccc2)CCc2ccccc21 (stereo not drawn) | – | 460 | – | 7 | 2 | 119 | 67 | – | – |
